Tests used:
[1] = tested on: Caco-2 cells; assay: Cytokine response, multiplex xMAP; assay type: cell-based, human; conditions: 2 µM peptide, 24 h
[2] = tested on: T-/B-/NK-lymphocytes; assay: Cytokine response, multiplex xMAP; assay type: cell-based, human; conditions: 2 µM peptide, 24 h
Protocol: The acute monocytic leukemia THP-1 cell line (ATCC TIB-202) was cultured in the complete RPMI 1640 medium (Invitrogen) containing 10% FBS, 1× antibiotic-antimycotic solution (Invitrogen), and 0.05 mM β-mercaptoethanol, in the CO2-incubator (5% CO2, 37 °C). THP-1 cells were differentiated into proinflammatory macrophages (MΦ1) according to the previously reported protocol. Primary peripheral blood mononuclear cells (PBMC) collected from a healthy donor were purchased from ATCC (PCS-800-011), thawed, and seeded into a 96-well plate one day prior to the experiment at a density of 2 × 10^5 cells/well. Two different cell subpopulations (monocytes and T-/B-/NK-lymphocytes) were isolated from PBMC based on their adherence ability. Macrophages MΦ1 were washed out and seeded into 96-well plates at a density of 10^5 cells/well one day prior to the experiment. The next day, medium in each well was replaced by a fresh complete RPMI 1640 medium with or without 2 μM of a tested peptide (rumicidin-1 or LL-37). Cell cultures were kept in a CO2-incubator (5% CO2, 37 °C) for 24 h. Culture supernatants were collected 24 h later and stored at −70 °C degrees less than one week prior to the assessment of analytes. 26 analytes were measured at a protein level by multiplex xMAP technology using the MILLIPLEX MAP Human Cytokine/Chemokine Magnetic Bead Immunology Panel kit (HCYTOMAG-60K-27, Merck): eotaxin-1/CCL11, TGFα, GM-CSF, IFNα2, IFNγ, IL-10, IL-12p40, IL-12p70, IL-15, sCD40L, IL-17A, IL-1RA, IL-1α, IL-9, IL-1β, IL-2, IL-3, IL-4, IL-5, IL-6, IL-7, IL-8/CXCL8, IP-10/CXCL10, RANTES/CCL5, TNFα, TNFβ. Multiplex-based assay read-out was performed using the MAGPIX system (Merck) with the xPONENT 4.2 software (Merck) in accordance with the manufacturer’s instruction with overnight incubation of the samples with primary antibodies. The final analysis was carried out with the MILLIPLEX Analyst v5.1 software (Merck). Measurements were performed twice for each sample. The release of the analytes in control and experimental samples were compared by unpaired two-sample t-test using GraphPad Prism v.8.0.1. The p values ≤ 0.05 were considered significant.

[3] = tested on: E. coli 1057 R2 (rpoS^Q3stop, macB^N470D); conditions: MHB + 0.9% NaCl
In short: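 Broth microdilution (CLSI-based) used 10^6 CFU/mL mid-log cells in MHB with or without added NaCl, and peptides serially diluted in 0.1% BSA at 37 °C. Resistance induction used daily serial passage from sub-MIC wells, followed by 3 drug-free passages before the final MIC.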

With CC[C@H](C)[C@H](NC(=O)[C@H](CCCCN)NC(=O)[C@H](CCC(=O)O)NC(=O)[C@H](CCCCN)NC(=O)[C@H](CO)NC(=O)[C@H](CCCCN)NC(=O)[C@H](CCCNC(=N)N)NC(=O)[C@H](Cc1ccccc1)NC(=O)[C@H](Cc1ccccc1)NC(=O)[C@H](CC(=O)O)NC(=O)CNC(=O)[C@H](CC(C)C)NC(=O)[C@@H](N)CC(C)C)C(=O)NCC(=O)N[C@@H](CCCCN)C(=O)N[C@@H](CCC(=O)O)C(=O)N[C@@H](Cc1ccccc1)C(=O)N[C@@H](CCCCN)C(=O)N[C@@H](CCCNC(=N)N)C(=O)N[C@H](C(=O)N[C@H](C(=O)N[C@@H](CCC(N)=O)C(=O)N[C@@H](CCCNC(=N)N)C(=O)N[C@H](C(=O)N[C@@H](CCCCN)C(=O)N[C@@H](CC(=O)O)C(=O)N[C@@H](Cc1ccccc1)C(=O)N[C@@H](CC(C)C)C(=O)N[C@@H](CCCNC(=N)N)C(=O)N[C@@H](CC(N)=O)C(=O)N[C@@H](CC(C)C)C(=O)N[C@H](C(=O)N1CCC[C@H]1C(=O)N[C@@H](CCCNC(=N)N)C(=O)N[C@H](C(=O)N[C@@H](CCC(=O)O)C(=O)N[C@@H](CO)C(=O)O)[C@@H](C)O)C(C)C)[C@@H](C)CC)C(C)C)[C@@H](C)CC [LL-37] the Eotaxin [1] was < 2.04 pg/mL, the GM-CSF [1] was 0,45 pg/ml and the IFNa2 [1] was 3,72 pg/ml. For the same compound, the IFNg [1] was < 1.31 pg/mL, the IL-1RA [1] was < 2.66 pg/mL and the IL-1a [1] was < 1.13 pg/mL. For the same compound, the IL-1b [1] was < 2.88 pg/mL, the IL-2 [1] was < 2.73 pg/mL and the IL-3 [1] was < 3.02 pg/mL. For the same compound, the IL-4 [1] was 43,73 pg/ml, the IL-5 [1] was < 2.74 pg/mL and the IL-6 [1] was < 2.42 pg/mL. The IL-7 [1] was < 2.06 pg/mL, the IL-8 [1] was 3,19 pg/ml and the IL-9 [1] was < 3.08 pg/mL. For the same compound, the IL-10 [1] was < 1.47 pg/mL, the IL-12p40 [1] was < 3.69 pg/mL and the IL-12p70 [1] was 0,29 pg/ml. For the same compound, the IL-15 [1] was < 2.08 pg/mL, the IL-17A [1] was < 0.94 pg/mL and the IP-10 [1] was 114,78 pg/ml. The RANTES [1] was 1050 pg/mL, the TGF-a [1] was < 2.64 pg/mL and the TNFa [1] was < 2.85 pg/mL. The TNFb [1] was < 2.85 pg/mL, the sCD40L [1] was 2,12 pg/ml and the GM-CSF [2] was 0,66 pg/ml. For the same compound, the IFNa2 [2] was 7,02 pg/ml, the IFNg [2] was 1,93 pg/ml and the IL-1RA [2] was 6,49 pg/ml. For the same compound, the IL-1a [2] was < 1.13 pg/mL, the IL-1b [2] was < 2.88 pg/mL and the IL-2 [2] was < 2.73 pg/mL. The IL-3 [2] was < 3.02 pg/mL, the IL-4 [2] was 51,58 pg/ml and the IL-5 [2] was < 2.74 pg/mL. For the same compound, the IL-6 [2] was < 2.42 pg/mL, the IL-7 [2] was < 2.06 pg/mL and the IL-8 [2] was 411,17 pg/ml. For the same compound, the IL-9 [2] was < 3.08 pg/mL, the IL-10 [2] was < 1.47 pg/mL and the IL-12p40 [2] was < 3.69 pg/mL. For the same compound, the IL-12p70 [2] was 1,03 pg/ml, the IL-15 [2] was < 2.08 pg/mL and the IL-17A [2] was < 0.94 pg/mL. The IP-10 [2] was 120,56 pg/ml, the RANTES [2] was 889,61 pg/ml and the TGF-a [2] was < 2.64 pg/mL. The TNFa [2] was 5,23 pg/ml, the TNFb [2] was < 2.85 pg/mL and the sCD40L [2] was 3,22 pg/ml. The MIC [3] was 2 µM.

Source: publication PMC11484942, “Rumicidins are a family of mammalian host-defense peptides plugging the 70S ribosome exit tunnel” (Nature Communications, 2024)
